According to patent publication EP0581464A1, “Ester derivatives and pharmaceutical compositions containing them” (ZENECA LIMITED, priority 1992, dated 1994):

Molecular target: T1, 5-LO (Homo sapiens, UniProt P09917)
T1 construct: incubating a test compound with heparinised human blood, prior to challenge with the calcium ionophore A23187; endogenous in cells; host or cells: human whole blood (blood cells)
T1 sequence (P09917 1-674): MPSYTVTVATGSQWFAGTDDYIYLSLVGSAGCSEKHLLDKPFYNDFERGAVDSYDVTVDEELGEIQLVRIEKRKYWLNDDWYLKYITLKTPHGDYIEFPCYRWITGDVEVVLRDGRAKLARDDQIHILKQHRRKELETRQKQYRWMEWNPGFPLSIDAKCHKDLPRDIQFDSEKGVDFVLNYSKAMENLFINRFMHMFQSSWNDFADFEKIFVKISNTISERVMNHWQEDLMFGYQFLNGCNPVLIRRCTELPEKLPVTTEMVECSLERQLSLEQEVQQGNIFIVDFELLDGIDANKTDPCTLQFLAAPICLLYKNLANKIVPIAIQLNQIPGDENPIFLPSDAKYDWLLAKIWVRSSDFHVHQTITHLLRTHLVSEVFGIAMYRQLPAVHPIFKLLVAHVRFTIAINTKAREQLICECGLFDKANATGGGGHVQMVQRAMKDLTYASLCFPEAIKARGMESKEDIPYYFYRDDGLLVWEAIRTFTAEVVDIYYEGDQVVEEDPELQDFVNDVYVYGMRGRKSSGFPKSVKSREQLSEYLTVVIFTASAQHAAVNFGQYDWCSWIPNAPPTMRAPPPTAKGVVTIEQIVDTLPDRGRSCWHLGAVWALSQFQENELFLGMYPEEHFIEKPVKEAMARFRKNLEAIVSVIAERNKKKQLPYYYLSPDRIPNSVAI
Experiment: Test a): in vitro heparinised human blood challenged with calcium ionophore A23187, radioimmunoassay of LTB4
Format: cell-based
Details: A23187 challenge, read-out: IC50 against LTB4 in test (a)
Source text: As stated previously, the compounds of the formula I are inhibitors of the enzyme 5-LO. […] J. Pharmacol. 1985, 84, 34P) which involve the use of a protein-LTB4 conjugate produced using the procedure of Young et alia (Prostaglandins, 1983, 26(4), 605-613). The effects of a test compound on the enzyme cyclooxygenase (which is involved in the alternative metabolic pathway for arachidonic acid and gives rise to prostaglandins, thromboxanes and related metabolites) may be measured at the same time using the specific radioimmunoassay for thromboxane B2(TxB2) described by Carey and Forder (see above). This test provides an indication of the effects of a test compound against 5-LO and also cyclooxygenase in the presence of blood cells and proteins. It permits the selectivity of the inhibitory effect on 5-LO or cyclooxygenase to be assessed. • b) An ex vivo assay system, which is a variation of test a) above, involving administration to a group of rats of a test compound (usually orally as the suspension produced when a solution of the test compound in dimethylsulphoxide is added to carboxymethylcellulose), blood collection, heparinisation, challenge with A23187 and radioimmunoassay of LTB4 and TxB2. […]

SMILES	IC50
COC1(/C(N)=C/C(=O)OCc2ccc3ccccc3c2)CCOCC1 [Example 1, naphth-2-ylmethyl (Z)-3-amino-3-(4-methoxytetrahydropyran-4-yi)prop-2-enoate]	0.07 µM
CO/N=C(\C)c1ccc(COC(=O)/C=C(\N)C2(OC)CCOCC2)cc1 [Example 2, 4-[(E)-1-methoxyiminoethyl]benzyl (Z)-3-amino-3-(4-methoxytetrahydropyran-4-yl)prop-2-enoate]	9.36 µM
